Experimental data from patent US6800280B2, “Methods for treating HIV-infected patients by the administration of GM-CSF and a protease inhibitor” (Schering AG, priority 1997, dated 2004).
“And” between values parts separate entries of the source, which are not always exact repeats. Equal values may be shown once. “Also recorded” adds a separate entry of the source.

How the values were obtained:
HIV = experiment: Phase I/II trial: HIV viral load by RNA-PCR (Amplicor) in HIV-infected patients; assay type: in vivo, Human Immunodeficiency Virus (HIV); conditions: GM-CSF group versus placebo group throughout the study, concurrent antiretroviral drugs
Procedure: (§1) A study was conducted to determine the safety and efficacy of human GM-CSF as a therapeutic reagent in HIV-infected patients. Because some in vitro studies had indicated the possibility that GM-CSF might enhance HIV replication in vivo, this study assessed the impact of co-administration of GM-CSF with an antiretroviral agent on HIV replication. HIV viral burden was measured by the RNA-PCR (Amplicor®) method. To assess the effects of this treatment on lymphocyte counts, blood samples were analyzed throughout the study for determination of CD3^+, CD4^+, and CD8^+ T-lymphocyte counts.
This study was a Phase I/II, randomized, double-blind, placebo-controlled, two-center trial involving patients with HIV disease. […] Viral load was determined at baseline (mean of three determinations within fourteen days of study entry), then at two weeks, four weeks, and eight weeks after starting study drugs, and on two separate occasions approximately four weeks after the conclusion of the treatment phase (post-treatment evaluation). […]
At 2, 4 and 8 weeks after the start of study drug and at follow-up (approximately 4 weeks after completion of study drug), patients were examined, their medical histories were updated, and samples were taken for laboratory studies. A central laboratory was utilized for HIV quantification laboratory tests in order to standardize procedures and minimize variability. […]

[1] = tested on: CD4^+ T-lymphocyte counts; experiment: Phase I/II randomized, double-blind, placebo-controlled trial: CD4^+ T-lymphocyte counts in HIV-infected patients; assay type: in vivo, human
Procedure: as §1
This study was a Phase I/II, randomized, double-blind, placebo-controlled, two-center trial involving patients with HIV disease. Patients meeting specific entry criteria were randomized to treatment with GM-CSF or placebo, and these were administered by subcutaneous injection three times per week for eight weeks. Viral load was determined at baseline (mean of three determinations within fourteen days of study entry), then at two weeks, four weeks, and eight weeks after starting study drugs, and on two separate occasions approximately four weeks after the conclusion of the treatment phase (post-treatment evaluation). Clinical and lymphocyte subset evaluations were performed at each of these same time points (i.e., pre-treatment, week 2, week 4, week 8, and 4 weeks post-study). Twenty patients were enrolled in the study, ten per treatment arm. All twenty patients completed the study.
Patients were eligible for inclusion in the study if the following parameters were met: documented HIV infection, including detectable RNA-PCR during baseline evaluation period, age ≧18 years (or legal age of consent), adequate hematologic function, satisfactory hepatic and renal function, adequate clinical performance status, treatment with an antiretroviral regimen that included either ritonavir or indinavir for at least 8 weeks prior to study enrollment and agreement to continue on a stable regimen throughout the study, ability and willingness to provide written informed consent, agreement to practice medically-approved contraception.
Patients were ineligible for inclusion in the study if the following exclusion criteria were met: concurrent pregnancy or breast feeding, concurrent use of other colony stimulating factors or cytokines (other than erythropoietin), life-expectancy <90 days, concurrent radiation or systemic cancer chemotherapy (or within 2 weeks prior to study entry), inability to self-administer or arrange for administration of subcutaneous injections, significant cardiac disease, prior history of adverse reaction to yeast-derived rhu GM-CSF which would prohibit retreatment, active infection (AIDS-related or not) requiring acute systemic therapy within 8 weeks prior to study enrollment, vaccination of any kind within 8 weeks of study enrollment.
Study participants were randomly assigned to receive either active GM-CSF or placebo. Patients were instructed in methods for self-administration of study medication and received preloaded syringes or vials with empty syringes for home use.
The formulation of recombinant human GM-CSF utilized in this clinical trial was LEUKINE® (commercially available from Immunex Corporation, Seattle, Wash.). LEUKINE® and placebo were supplied as lyophilized powders. Both LEUKINE® and placebo were reconstituted by the aseptic injection of Bacteriostatic Water for Injection, USP, containing 0.9% benzyl alcohol. […] These were 40 mg mannitol, USP; 10 mg sucrose, NF; and 1.2 mg TRIS (tromethamine), USP; per vial of study drug. Vials containing placebo were labeled in a fashion identical to vials containing LEUKINE®. Vials of placebo and LEUKINE® were stored refrigerated at 2-8° C. (36-46° F.). […]

[2] = WEEK 2, 9 patients, 250 mcg s.c. three times per week
[3] = WEEK 4, 10 patients, 250 mcg s.c. three times per week
[4] = WEEK 8, 10 patients, 250 mcg s.c. three times per week
[5] = WEEK 12 (post-treatment), 10 patients

## GM-CSF: biosynthetic, yeast-derived, recombinant human GM-CSF; single 127 amino acid glycoprotein with leucine instead of proline at position 23
HIV
  Change in viral load (in words): no significant increase; also recorded: No significant differences; also recorded: without a concurrent increase
[1]; GM-CSF arm versus baseline / placebo, patients concurrently receiving antiretroviral drugs
  Effect on CD4^+ T-lymphocyte counts (in words): a trend towards an increase; also recorded: increased at all of the evaluation points; also recorded: significant increase
[1]; [2]
  Change in CD4^+ T-Lymphocyte Counts Relative to Baseline, Mean (Sd): 39 (150)
  Change in CD4^+ T-Lymphocyte Counts Relative to Baseline, Median: −9
  Change in CD4^+ T-Lymphocyte Counts Relative to Baseline, Min-Max: −79-389
[1]; [3]
  Change in CD4^+ T-Lymphocyte Counts Relative to Baseline, Mean (Sd): 40 (68)
  Change in CD4^+ T-Lymphocyte Counts Relative to Baseline, Median: 34
  Change in CD4^+ T-Lymphocyte Counts Relative to Baseline, Min-Max: −61-135
[1]; [4]
  Change in CD4^+ T-Lymphocyte Counts Relative to Baseline, Mean (Sd): 79 (172)
  Change in CD4^+ T-Lymphocyte Counts Relative to Baseline, Median: 4
  Change in CD4^+ T-Lymphocyte Counts Relative to Baseline, Min-Max: −68-424
[1]; [5]
  Change in CD4^+ T-Lymphocyte Counts Relative to Baseline, Mean (Sd): 28 (54)
  Change in CD4^+ T-Lymphocyte Counts Relative to Baseline, Median: 30
  Change in CD4^+ T-Lymphocyte Counts Relative to Baseline, Min-Max: −68-112
[1]; individual patients of GM-CSF arm, baseline (pre-treatment), on ritonavir or indinavir regimen
  Absolute CD4^+ T-Lymphocyte Counts, Baseline CD4: 276 and 383 and 65 and 590 and 152 and 91 and 24 (2×) and 40 and 136
[1]; individual patients, approximately 4 weeks after completion of 8-week treatment, 250 mcg s.c. three times per week
  Absolute CD4^+ T-Lymphocyte Counts, Post-Study CD4: 208 and 373 and 77 and 659 and 199 and 161 and 11 and 33 and 136 and 200
[1]; individual patients, week 2, 250 mcg s.c. three times per week for eight weeks, concurrent ritonavir or indinavir regimen
  Absolute CD4^+ T-Lymphocyte Counts, Week 2 CD4: 229 and 304 and 227 and 979 and 77 and 25 and 26 and 15 and 157
[1]; individual patients, week 4, 250 mcg s.c. three times per week for eight weeks, concurrent ritonavir or indinavir regimen
  Absolute CD4^+ T-Lymphocyte Counts, Week 4 CD4: 356 and 477 and 31 and 725 and 91 and 219 and 12 and 61 and 26 and 182
[1]; individual patients, week 8, 250 mcg s.c. three times per week for eight weeks, concurrent ritonavir or indinavir regimen
  Absolute CD4^+ T-Lymphocyte Counts, Week 8 CD4: 238 and 750 and 76 and 1014 and 84 and 162 and 21 and 29 and 18 and 176
[1]; median of GM-CSF arm, approximately 4 weeks post-treatment
  Absolute CD4^+ T-Lymphocyte Counts, Post-Study CD4, Median: 180
[1]; median of GM-CSF arm, baseline (pre-treatment)
  Absolute CD4^+ T-Lymphocyte Counts, Baseline CD4, Median: 114
[1]; median of GM-CSF arm, week 2, 250 mcg s.c. three times per week
  Absolute CD4^+ T-Lymphocyte Counts, Week 2 CD4, Median: 157
[1]; median of GM-CSF arm, week 4, 250 mcg s.c. three times per week
  Absolute CD4^+ T-Lymphocyte Counts, Week 4 CD4, Median: 137
[1]; median of GM-CSF arm, week 8, 250 mcg s.c. three times per week
  Absolute CD4^+ T-Lymphocyte Counts, Week 8 CD4, Median: 123
[1]; patients with CD4^+ change of 30% or more over baseline / patients counted, thru week 8
  MAXIMUM CHANGE > 30% THRU WEEK 8, n/N: 6/10
[1]; patients with CD4^+ change of 30% or more over baseline / patients counted, thru week 12
  MAXIMUM CHANGE > 30% THRU WEEK 12, n/N: 8/10
[1]; share of patients with CD4^+ change of 30% or more over baseline, thru week 12
  MAXIMUM CHANGE > 30% THRU WEEK 12, (%) of patients: (80%)
